The subject of the assay is TRFP primed T cell cultures. The assay can be described thus: T cell proliferation assay (tritiated thymidine incorporation) of TRFP-primed T cells restimulated with allergens or peptides. In kind it is cell-based, human. The method, then:
Peripheral blood mononuclear cells (PBMC) were purified from 60 ml of heparinized blood from cat allergic patients. PBMC were subsequently treated as described below, although in individual cases, the length of time of cultivation with IL-2 and/or IL-4 and the specific peptides used for stimulation varied.
10 ml of PBMC from patient 131 at 10^6/ml were cultured at 37°C for 7 days in the presence of 5 micrograms purified TRFP/ml RPMI-1640 supplemented with 5% pooled human AB serum. Viable cells were purified by Ficoll-Hypaque centrifugation and cultured for three weeks at 5 units recombinant human IL-2/ml and 5 units recombinant human IL-4/ml. The resting T cells were then restimulated (secondary) with 5 micrograms TRFP at 2 x 10^5/ml in the presence of irradiated (3500 Rads) autologous PBMC at a concentration of 5 x 10^5/ml for three days, purified by Ficoll-Hypaque centrifugation and grown in 5 units IL-2 and 5 units IL-4/ml for two weeks. For assay, 2 x 10^4 resting secondary T cells were restimulated (tertiary) in the presence of 5 x 10^4 irradiated (3500 Rads) autologous PBMC or 2 x 10^4 transformed B cells (20,000 Rads) with various concentrations of allergens or their fragments in a volume of 200 microliters in a 96-well round bottom assay plates for 3 days. Each well then received 1 microCurie tritiated (methyl) thymidine for 16 hours. The counts incorporated were collected onto glass fiber filters and processed for liquid scintillation counting.
Antigens used: T cell reactive feline protein (TRFP), Hollister-Stier cat epithelium skin test reagent (CST), IPC ragweed pollen extract (pollen), and synthetic peptides derived from the TRFP protein sequence (See Figures 6 and 7). Significant T cell proliferation is generally regarded as greater than 2.5 times the media control (T cells and antigen presenting cells alone).
Alternatively, PBMC were treated as follows: the primary stimulated cells were cultured in IL-2/IL-4 for two weeks. The resting T cells derived from this culture were tested in a secondary assay with some, but not all, of the above allergens. […] This type of epitope analysis has allowed the definition of T cell epitopes present in TRFP.
(Uptake of a labelled nucleoside into DNA is a usual measure of proliferation.)

Where [1] appears, read: Chain #1 TRFP peptides, average cpm with antigen divided by cpm of T cells and antigen presenting cells alone, responding patients, SI ≥ 2.5 positive.
[2] abbreviates: Chain #1 TRFP peptides, cat allergic patients, average SI of all responding patients multiplied by percent of patients with a positive response.
The mark [3] stands for this setting: Chain #2 TRFP peptides, cat allergic patients, average SI of responding patients multiplied by percent positive.
Where [4] appears, read: Chain #2 TRFP peptides, cat allergic patients, average of responding patients.

In turn, “Fel 1-2: TRFP chain 1 peptide, amino acids 1 - 17 (EICPAVKRDVDLFLTGT; UniProt P30438 23-39, looked up, fragment)” showed an SI under setting [1] of 7.4. The same substance had a PI under setting [2] of 311.

For the substance “Fel 3-1: TRFP chain 1 peptide, amino acids 18 - 33 (PDEYVEQVAQYKALPV; UniProt P30438 40-55, looked up, fragment)”, under setting [1], the SI was 9.4. Also, the PI under setting [2] is given as 638.

As to “Fel 3-11: TRFP chain 1 peptide, amino acids 18 - 30 (PDEYVEQVAQYKA; UniProt P30438 40-52, looked up, fragment)”, the SI under setting [1] was 10.4. Under setting [2], this substance came in with a PI of 863.

On to “Fel 3-13: TRFP chain 1 peptide, amino acids 18 - 28 (PDEYVEQVAQY; UniProt P30438 40-50, looked up, fragment)”, for which the SI under setting [1] was 11.5. For the same substance, the PI under setting [2] was 690.

For “Fel 3-15: TRFP chain 1 peptide, amino acids 18 - 29 (PDEYVEQVAQYK; UniProt P30438 40-51, looked up, fragment)”, the SI under setting [1] is recorded as 10.4. This substance yielded a PI under setting [2] of 1040.

In the case of “Fel 8-1: TRFP chain 1 peptide, amino acids 5 - 33 (AVKRDVDLFLTGTPDEYVEQVAQYKALPV; UniProt P30438 27-55, looked up, fragment)”, the SI under setting [1] amounted to 15.1. Further, the PI under setting [2] turned out to be 1374.

“Fel 8-2: TRFP chain 1 peptide, amino acids 6 - 33 (VKRDVDLFLTGTPDEYVEQVAQYKALPV; UniProt P30438 28-55, looked up, fragment)”: under setting [1], the SI came to 15.2. This substance also yielded a PI under setting [2] of 1353.

“Fel 14-1: TRFP chain 1 peptide, amino acids 23 - 36 (EQVAQYKALPVVLE; UniProt P30438 45-58, looked up, fragment)” returned an SI under setting [1] of 9.9. Under setting [2], the PI is recorded as 871.

On to “Fel 14-2: TRFP chain 1 peptide, amino acids 29 - 42 (KALPVVLENARILK; UniProt P30438 51-64, looked up, fragment)”, for which the SI under setting [1] is reported as 5.6. Under setting [2], this substance gave a PI of 336.

Regarding “Fel 14-4: TRFP chain 1 peptide, amino acids 26 - 36 (AQYKALPVVLE; UniProt P30438 48-58, looked up, fragment)”, the SI under setting [1] amounted to 6.0. Moreover, the PI under setting [2] stood at 474.

Under setting [1], “Fel 14-5: TRFP chain 1 peptide, amino acids 27 - 36 (QYKALPVVLE; UniProt P30438 49-58, looked up, fragment)” registered an SI of 5.4. The same substance yielded a PI under setting [2] of 286.

“Fel 15: TRFP chain 1 peptide, amino acids 44 - 60 (CVDAKMTEEDKENALSV; UniProt P30438 66-82, looked up, fragment)” gave an SI under setting [1] of 11.0. Moreover, the PI under setting [2] stood at 440.

The substance “Fel 23: TRFP chain 1 peptide, amino acids 51 - 66 (EEDKENALSVLDKIYT; UniProt P30438 73-88, looked up, fragment)” gave an SI under setting [1] of 6.6. This substance also returned a PI under setting [2] of 343.

With “Fel 30-2: TRFP chain 1 peptide, amino acids 25 - 48 (VAQYKALPVVLENARILKNCVDAK; UniProt P30438 47-70, looked up, fragment)”, the SI under setting [1] is listed as 4.2. For the same substance, the PI under setting [2] is reported as 248.

As for “Fel 30-3: TRFP chain 1 peptide, amino acids 25 - 47 (VAQYKALPVVLENARILKNCVDA; UniProt P30438 47-69, looked up, fragment)”, the SI under setting [1] amounted to 4.8. Under setting [2], the PI turned out to be 230.

On to “Fel 30-4: TRFP chain 1 peptide, amino acids 29 - 55 (KALPVVLENARILKNCVDAKMTEEDKE; UniProt P30438 51-77, looked up, fragment)”, for which, under setting [1], the SI was determined as 11.6. This substance also yielded a PI under setting [2] of 1079.

Turning to “Fel 30-5: TRFP chain 1 peptide, amino acids 29 - 54 (KALPVVLENARILKNCVDAKMTEEDK; UniProt P30438 51-76, looked up, fragment)”, under setting [1], the SI is on record as 11.0. Further, the PI under setting [2] is 792.

For the substance “Fel 30-7: TRFP chain 1 peptide, amino acids 26 - 55 (AQYKALPVVLENARILKNCVDAKMTEEDKE; UniProt P30438 48-77, looked up, fragment)”, the SI under setting [1] amounted to 5.3. The substance also came in with a PI under setting [2] of 339.

“Fel 30-8: TRFP chain 1 peptide, amino acids 28 - 55 (YKALPVVLENARILKNCVDAKMTEEDKE; UniProt P30438 50-77, looked up, fragment)” registered an SI under setting [1] of 4.1. The substance further gave a PI under setting [2] of 262.

Under setting [3], “Fel 31-1: TRFP chain 2 peptide, amino acids 14 - 40 (FFAVANGNELLLDLSLTKVNATEPERT; UniProt P30440 31-57, looked up, fragment)” yielded a PI of 733. In addition, the SI under setting [4] is given as 9.4.

Substance “Fel 31-2: TRFP chain 2 peptide, amino acids 14 - 39 (FFAVANGNELLLDLSLTKVNATEPER; UniProt P30440 31-56, looked up, fragment)” returned a PI under setting [3] of 599. Under setting [4], the SI came out at 8.1.

“Fel 31-4: TRFP chain 2 peptide, amino acids 14 - 37 (FFAVANGNELLLDLSLTKVNATEP; UniProt P30440 31-54, looked up, fragment)” gave a PI under setting [3] of 622. This substance also gave an SI under setting [4] of 8.4.

Under setting [3], “Fel 31-5: TRFP chain 2 peptide, amino acids 14 - 36 (FFAVANGNELLLDLSLTKVNATE; UniProt P30440 31-53, looked up, fragment)” displayed a PI of 539. Under setting [4], the SI is reported as 7.6.

Under setting [3], “Fel 31-6: TRFP chain 2 peptide, amino acids 15 - 40 (FAVANGNELLLDLSLTKVNATEPERT; UniProt P30440 32-57, looked up, fragment)” showed a PI of 295. This substance displayed an SI under setting [4] of 4.4.

The substance “Fel 31-7: TRFP chain 2 peptide, amino acids 15 - 36 (FAVANGNELLLDLSLTKVNATE; UniProt P30440 32-53, looked up, fragment)” gave a PI under setting [3] of 267. Moreover, under setting [4], the SI is on record as 5.8.

Substance “Fel 32-1: TRFP chain 2 peptide, amino acids 12 - 24 (DVFFAVANGNELL; UniProt P30440 29-41, looked up, fragment)” showed a PI under setting [3] of 442. In addition, the SI under setting [4] is on record as 6.6.

“Fel 32-2: TRFP chain 2 peptide, amino acids 14 - 24 (FFAVANGNELL; UniProt P30440 31-41, looked up, fragment)” registered a PI under setting [3] of 424. Under setting [4], this substance gave an SI of 5.3.

Source of the values: patent EP0500785B1, “A HUMAN T CELL REACTIVE FELINE PROTEIN (TRFP) ISOLATED FROM HOUSE DUST AND USES THEREFOR” (IMMULOGIC PHARMACEUTICAL CORPORATION, priority 1989, dated 2002).
